{
  "source": "patent US20040132969A1",
  "about": "“Antibodies, peptides, analogs and uses thereof” (priority 2000, published 2004)",
  "molecules": {"B1": {"name": "fibrin fragment E: fibrin fragment E (55 kD), used digoxygenin labelled in binding experiments (protein)", "chain 1": "GPRVVERHQSACKDSDWPFCSDEDWNYKCPSGCRMKGLIDEVNQDFTNRINKLKNSLFEYQK", "chain 2": "GHRPLDKKREEAPSLRPAPPPISGGGYRARPAKAAATQKKVERKAPDAGGCLHADPDLGVLCPTGCQLQEALLQQERPIRNSVDELNNNVEAVSQTSSSSFQYMYLLK", "chain 3": "YVATRDNCCILDERFGSYCPTTCGIADFLSTYQTKVDKDLQSLEDILHQVENKTSEVKQLIK"}},
  "key": {"HUVEC and fibroblasts [1]": {"test_system": "HUVEC and fibroblasts", "assay": "Neutral Red cell metabolism cytotoxicity assay", "type": "cell-based, human", "conditions": "for cytotoxicity / cell viability, Neutral Red assay: HUVEC and fibroblast monocultures, 72 hours", "method": "(§1) In order to determine whether the fibrin E analogue peptides WTM33, WTM34, WTM35, WTM36, and WTM37 are cytotoxic when applied to the HUVEC and fibroblasts used in the Angiosys™ angiogenesis assay, these reagents were examined in two different cytotoxicity assays. To simplify performance of these assays and discriminate between fibroblasts and HUVEC, cells were grown in monocultures rather than together and then treated with the experimental reagents as described below.\nA Neutral Red cell metabolism assay was used to determine the cytotoxicity to HUVEC and fibroblasts of the fibrin E analogue peptides. This assay works on the basis of colorimetric measurement of a red dye which, is reported to be taken up into the lysosomes of uninjured cells. Thus the stronger the colour signal obtained from a well of cells, the greater the percentage of cells remaining viable within that well. HUVEC cells were inoculated into wells of 96 wells at a density of 5×10^3 cells per well, in endothelial cell culture medium. Fibroblasts were similarly seeded 5×10^3 cells per well. The cells were incubated for 24 hours under standard conditions to permit adherence and growth, and then treated for 72 hours with fresh medium containing fibrin E peptides over the same range of concentrations used in the Angiosys™ angiogenesis assay. For each concentration of each of the six peptides, four replicate wells of each cell type were treated and then assayed. Following incubation with the test compounds, the medium was removed and replaced with 200 μl per well of fresh medium containing 3.57 mg neutral red per 100 ml. The cells were incubated with this neutral red solution for 3 hours, after which this solution was decanted and replaced with 100 μl 1% formaldehyde/1% CaCl2. This was rapidly decanted and replaced in turn with 200 μl 50% ethanol/1% acetic acid, which was incubated at room temperature for 30 minutes to extract the neutral red from the cells. The plates were then read in a 96 well plate-format spectrophotometer, measuring absorbance at 540 nm. Mean absorbance values from each group of four wells were calculated and expressed as a percentage±standard deviation of the mean value obtained from control wells incubated in the absence of fibrin E analogue peptide."}, "HUVEC and fibroblasts [2]": {"test_system": "HUVEC and fibroblasts", "assay": "BrdU ELISA cell proliferation cytotoxicity assay", "type": "cell-based, human", "conditions": "for cytotoxicity / cell proliferation, BrdU assay: HUVEC and fibroblast monocultures, 24 hours", "method": "as §1\nCytotoxicity of the fibrin E peptide analogues was also determined by examining cell proliferation, using a commercial BrdU ELISA (Roche Molecular Biochemicals) performed according to the manufacturer's instructions. This assay quantifies DNA synthesis as a measure of cellular proliferation, as stimulation or inhibition of cell replication will require a concomitant change in the rate of DNA synthesis. Measurement of DNA synthesis is achieved by incubating proliferating cells in medium in which thymidine has been replaced with the pyrimidine analogue 5-bromo-2′-deoxyuridine (BrdU). Once incorporated into the cellular DNA, BrdU is measured by immunoassay. Briefly, HUVEC and fibroblasts were seeded as monocultures into 96 well plates at a density of 5×10^3 cells per well, to a final volume of 100 μl per well in endothelial cell culture medium. At the end of an initial culture period of 72 hours under standard conditions, while the cells were still proliferating, fibrin E analogue peptides were added to a range of final concentrations, as shown in the FIG. 8. Each treatment concentration of each peptide was administered to four replicate wells. Control cells received standard medium without test compounds. The cells were incubated for 24 hours with the test compounds, before 10 μl of stock BrdU solution (100 μM) was added to give a final concentration of 10 μM BrdU, and the cells were incubated for a further 2 hours. The test medium was then removed from the cells and replaced with 200 μl per well of Fixing/Denaturing solution, which was incubated on the cells for a further 30 minutes at room temperature. This was then replaced with 100 μl per well anti-BrdU-POD (mouse monoclonal clone BMG 6H8, Fab fragments conjugated to peroxidase) prepared as directed, which was left on the cells for a further 90 minutes at room temperature. The antibody conjugate was then removed from the wells by rinsing three times in 200 μl per well of washing buffer (PBS) before 100 μl well substrate solution (tetramethyl-benzidine) was added and incubated at room temperature until colour development was sufficient for photometric detection (approximately 15 minutes). Absorbance at 370 nm was measured on a multi-well plate ELISA plate reader (Dynatech), with a reference wavelength of 492 nm. Mean absorbance values from each group of four wells were calculated and expressed as a percentage±standard deviation of the mean value obtained from control wells incubated in the absence of fibrin E analogue peptide."}, "Chick fibroblasts": {"test_system": "Chick fibroblasts", "assay": "Cell immunohistochemistry", "type": "binding", "conditions": "8 mg per ml; 2 hours", "method": "Chick fibroblasts were cultured in a 25 cm^2 flask (Nunc) until confluent (approximately 3×10^6 cells). The cells were washed in PBS and then trypsinised and diluted to 3×10^5 cells per ml in Dulbecco modified medium with 10% foetal calf serum. […] of the cells suspension was plated into each well of a Nunc culture well slide. The cells were incubated overnight to allow adhesion and recovery from the passaging. Digoxygenin labelled fibrin fragment E was added to a final concentration of 8 mg per ml. Control wells contained unconjugated digoxygenin and PBS.\nThe cells were rinsed after 2 hours with PBS then washed 3 times in TBS followed by one wash in distilled water. The cells were then incubated for 2 hours with sheep anti-digoxygenin alkaline phosphatase. The slides were then washed three times in TBS and developed with NBT and BCIP in bicarbonate buffer pH 9.8. The slides were air dried and then mounted for observation of membrane staining under the microscope."}, "[3]": {"test_system": "Chick fibroblasts, Cos7, mouse 3T3 and human embryonic lung cells (HEL)", "assay": "Cell binding assays (absorbance at 405 nm)", "conditions": "0-30 mg per well; 6 hours; each of the cell types", "method": "Chick fibroblasts, Cos7, mouse 3T3 and human embryonic lung cells (HEL) were cultured in a 25 cm^2 flask (Nunc) until confluent (approximately 3×10^6 cells). The cells were trypsinised and resuspended at concentration of 1.3×10^5 cells/ml. 200 μl of this cell suspension was added to each well of a 96 well culture plate (Nunc). The cells were incubated overnight at 37° C. to allow adherence and recovery. The cells were then divided into three sections, digoxygenin controls, PBS controls and digoxygenin labelled fragment E tests. Increasing concentrations of digoxygenin and digoxygenin labelled fibrin fragment E were applied from 0-30 mg per well. The plates were incubated for 6 hours at 37° C. under culture conditions.\nThe plates were emptied of media and washed three times with PBS. The cells were then incubated for 2 hours with sheep antidigoxygenin alkaline phosphatase and developed with p-nitrophenyl phosphate in bicarbonate buffer pH 9.8. The plates were read on a Titertek Multiscan plate reader at 405 nm."}},
  "note": "“Also recorded” adds a separate entry of the source. Where no end group is shown, it is not given here.",
  "data": [
    {"molecule": "QLQEALLQQERPIRN [WTM35, QLQEALLQQERPIRN]", "values": [
      {"measurement": "cytotoxicity / cell viability, Neutral Red assay", "setting": "HUVEC and fibroblasts [1]", "result": "not cytotoxic; also recorded: no toxicity"},
      {"measurement": "cytotoxicity / cell proliferation, BrdU assay", "setting": "HUVEC and fibroblasts [2]", "result": "not cytotoxic; also recorded: no toxicity"}
    ]},
    {"molecule": "SLRPAPPPISGGGYR [WTM33, SLRPAPPPISGGGYR]", "values": [
      {"measurement": "cytotoxicity / cell survival, Neutral Red assay", "setting": "HUVEC and fibroblasts [1]; 3, 12, 100 μg/ml", "result": "no effect on survival of either cell type"},
      {"measurement": "cytotoxicity / cell viability, Neutral Red assay", "setting": "HUVEC and fibroblasts [1]", "result": "not cytotoxic"},
      {"measurement": "cytotoxicity / cell survival, BrdU assay", "setting": "HUVEC and fibroblasts [2]; 3, 12, 100 μg/ml", "result": "no effect on survival of either cell type"},
      {"measurement": "cytotoxicity / cell proliferation, BrdU assay", "setting": "HUVEC and fibroblasts [2]", "result": "not cytotoxic"}
    ]},
    {"molecule": "SSSSFQYMYLL [WTM37, SSSSFQYMYLL]", "values": [
      {"measurement": "cytotoxicity / cell viability, Neutral Red assay", "setting": "HUVEC and fibroblasts [1]", "result": "no toxicity to either cell type"},
      {"measurement": "cytotoxicity / cell proliferation, BrdU assay", "setting": "HUVEC and fibroblasts [2]", "result": "no toxicity to either cell type"}
    ]},
    {"molecule": "SVDELNNNVEAVSQT [WTM36, SVDELNNNVEAVSQT]", "values": [
      {"measurement": "cytotoxicity / cell viability, Neutral Red assay", "setting": "HUVEC and fibroblasts [1]", "result": "not cytotoxic; also recorded: no reduction in the viability of the cells"},
      {"measurement": "cytotoxicity / cell proliferation, BrdU assay", "setting": "HUVEC and fibroblasts [2]", "result": "not cytotoxic; also recorded: exhibited an effect on the cell proliferation"},
      {"measurement": "cell proliferation, BrdU assay", "setting": "HUVEC and fibroblasts [2]; higher concentrations", "result": "potential for reduction in cell proliferation"}
    ]},
    {"molecule": "B1", "values": [
      {"measurement": "binding to cells (membrane staining)", "setting": "Chick fibroblasts", "result": "shown to bind"},
      {"measurement": "binding to cells (absorbance at 405 nm compared to controls)", "setting": "[3]", "result": "high absorbance"}
    ]}
  ]
}
